Patent US6358885B1, “Substituted phenylheterocyclic herbicides” (Mississippi State University, priority 1992, dated 2002)

Columns and labels:
barnyardgrass = assay: Test B preemergence/postemergence greenhouse plant response rating 0 to 10; assay type: in vivo, Echinochloa crus-galli; conditions: for Plant response rating, Barnyardgrass: 0 to 10 scale
How it was run: (§1)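 Planted seeds are treated preemergence with compound dissolved in a non-phytotoxic solvent, while postemergence applications go onto plants of two to eighteen cm. Plants stay in the greenhouse twelve to sixteen days and are then rated visually relative to controls.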

cocklebur = assay: as above; assay type: in vivo, Xanthium pensylvanicum; conditions: for Plant response rating, Cocklebur: 0 to 10 scale
How it was run: as §1

cotton = assay: as above; assay type: in vivo, Gossypium hirsutum; conditions: for Plant response rating, Cotton: 0 to 10 scale
How it was run: as §1

morningglory = assay: as above; assay type: in vivo, Ipomoea hederacea; conditions: 0 to 10 scale
How it was run: as §1

rice [1] = assay: as above; assay type: in vivo, Oryza sativa; conditions: 0 to 10 scale
How it was run: as §1

sorghum = assay: as above; assay type: in vivo, Sorghum bicolor; conditions: 0 to 10 scale
How it was run: as §1

wheat = assay: as above; assay type: in vivo, Triticum aestivum; conditions: 0 to 10 scale
How it was run: as §1

wild oat = assay: as above; assay type: in vivo, Avena fatua; conditions: 0 to 10 scale
How it was run: as §1

blackgrass = assay: Test C preemergence/postemergence greenhouse plant response rating 0 to 100; assay type: in vivo, Alopecurus myosuroides; conditions: POSTEMERGENCE; for Plant response rating, Blackgrass: 0 to 100 scale
How it was run: (§2)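 Compounds in non-phytotoxic solvent applied preemergence to sandy loam one day after planting, postemergence at the 1–4 leaf stage, or to ~2.5 cm floodwater over silt loam.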

crabgrass = assay: as above; assay type: in vivo, Digitaria sanguinalis; conditions: POSTEMERGENCE; for Plant response rating, Crabgrass: 0 to 100 scale
How it was run: as §2

rape = assay: as above; assay type: in vivo, Brassica napus; conditions: POSTEMERGENCE; for Plant response rating, Rape: 0 to 100 scale
How it was run: as §2

rice [2] = assay: Test C flood test plant response rating 0 to 100; assay type: in vivo, Oryza sativa; conditions: for Plant response rating Rice Japonica: flood test species listed under POSTEMERGENCE, 0 to 100 scale
How it was run: as §2

umbrella sedge = assay: Test C flood test plant response rating 0 to 100; assay type: in vivo, Cyperus difformis; conditions: for Plant response rating Umbrella sedge: flood test species listed under POSTEMERGENCE, 0 to 100 scale
How it was run: as §2

sandbur = assay: Test G preemergence/postemergence greenhouse plant response rating 0 to 100; assay type: in vivo, Cenchrus echinatus; conditions: 0 to 100 scale
From the text: Seeds, rhizomes, or plant parts of alfalfa (Medicago ativa), annual bluegrass (Poa annua), bermudagrass (Cynodon dactylon), broadleaf signalgrass (Brachiaria plantaginea), common purslane (Portulaca oleracea), common ragweed (Ambrosia elatior), […] (Paspalum dilatatum), goosegrass (Eleusine indica), guineagrass (Panicum maximum), […] exaltata), johnsongrass (Sorghum halepense), large crabgrass (Digitaria sanguinalis), peanut (Arachis hypoagaea), pitted morningglory (Ipomoea lacunosa), purple nutsedge (Cyperus rotundus), sandbur (Cenchrus echinatus), smooth crabgrass (Digitaria ischaemum) and yellow nutsedge (Cyperus esculentus) were planted into greenhouse pots containing greenhouse planting medium. Each pot contained only one plant species. The test compound was dissolved in a non-phytotoxic solvent and applied preemergence and/or postemergence to the plants. Preemergence applications were made within one day of planting the seeds or plant parts. Postemergence applications were applied when the plants were in the two to four leaf stage (three to twenty cm). Test chemicals were dissolved in a non-phytotoxic solvent and applied preemergence and postemergence to the plants. Untreated control plants and treated plants were placed in the greenhouse and visually evaluated for injury at 13 to 21 days after herbicide application. […] A dash (-) response indicates no test result.

[3] = POSTEMERGENCE section, flood test, Rate 4 g/ha
[4] = Rate 16 g/ha, under POSTEMERGENCE head (flood test species)

COC(=O)C(C)Oc1cc(-c2nn3c(c2Cl)CCCC3)c(F)cc1Cl (stereo not shown) [Compound 28]
65: Plant response rating Rice Japonica (rice [2]; 62 g/ha)
85: Plant response rating Rice Japonica (rice [2]; 250 g/ha)
9: Plant response rating (0 to 10 scale), Cocklebur (cocklebur; POSTEMERGENCE, Rate 50 g/ha) | Plant response rating, Sorghum (sorghum; POSTEMERGENCE, Rate 200 g/ha) | Plant response rating, Wheat (wheat; POSTEMERGENCE, Rate 200 g/ha)
7: Plant response rating (0 to 10 scale), Barnyardgrass (barnyardgrass; POSTEMERGENCE, Rate 50 g/ha) | Plant response rating, Rice (rice [1]; POSTEMERGENCE, Rate 200 g/ha) | Plant response rating, Sorghum (sorghum; POSTEMERGENCE, Rate 50 g/ha) | Plant response rating, Wheat (wheat; POSTEMERGENCE, Rate 50 g/ha)
100: Plant response rating, Rape (rape; 62 g/ha) | Plant response rating, Rape (rape; 250 g/ha)
50: Plant response rating, Blackgrass (blackgrass; 62 g/ha) | Plant response rating, Crabgrass (crabgrass; 250 g/ha) | Plant response rating (0 to 100), Rape (rape; Rate 4 g/ha)
30: Plant response rating (0 to 100), Blackgrass (blackgrass; Rate 16 g/ha)
2: Plant response rating, Rice (rice [1]; Rate 200 g/ha, PREEMERGENCE) | Plant response rating, Wheat (wheat; Rate 200 g/ha, PREEMERGENCE) | Plant response rating, Wild oat (wild oat; Rate 200 g/ha, PREEMERGENCE)
3: Plant response rating, Morningglory (morningglory; PREEMERGENCE, Rate 50 g/ha) | Plant response rating, Morningglory (morningglory; Rate 200 g/ha, PREEMERGENCE)
70: Plant response rating, Blackgrass (blackgrass; 250 g/ha) | Plant response rating (0 to 100), Rape (rape; Rate 16 g/ha) | Plant response rating Umbrella sedge (umbrella sedge; 250 g/ha)
1: Plant response rating, Barnyardgrass (barnyardgrass; Rate 200 g/ha, PREEMERGENCE) | Plant response rating, Cocklebur (cocklebur; Rate 200 g/ha, PREEMERGENCE)
5: Plant response rating, Rice (rice [1]; POSTEMERGENCE, Rate 50 g/ha) | Plant response rating, Wild oat (wild oat; POSTEMERGENCE, Rate 50 g/ha)
0: Plant response rating, Barnyardgrass (barnyardgrass; PREEMERGENCE, Rate 50 g/ha) | Plant response rating, Cocklebur (cocklebur; PREEMERGENCE, Rate 50 g/ha) | Plant response rating, Cotton (cotton; PREEMERGENCE, Rate 50 g/ha) | Plant response rating, Cotton (cotton; Rate 200 g/ha, PREEMERGENCE) | Plant response rating, Rice (rice [1]; PREEMERGENCE, Rate 50 g/ha) | Plant response rating, Sorghum (sorghum; PREEMERGENCE, Rate 50 g/ha) | Plant response rating, Sorghum (sorghum; Rate 200 g/ha, PREEMERGENCE) | Plant response rating, Wheat (wheat; PREEMERGENCE, Rate 50 g/ha) | Plant response rating (0 to 100), Crabgrass (crabgrass; Rate 4 g/ha) | Plant response rating (0 to 100), Crabgrass (crabgrass; Rate 16 g/ha) | Plant response rating (0 to 100), Rice Japonica (rice [2]; [3]) | Plant response rating (0 to 100), Umbrella sedge (umbrella sedge; [3]) | Plant response rating (0 to 100), Umbrella sedge (umbrella sedge; [4]) | Plant response rating, S. Sandbur (sandbur; POSTEMERGENCE, Rate 125 g/ha) | Plant response rating, S. Sandbur (sandbur; POSTEMERGENCE, Rate 250 g/ha) | Plant response rating, S. Sandbur (sandbur; PREEMERGENCE, Rate 125 g/ha) | Plant response rating, S. Sandbur (sandbur; PREEMERGENCE, Rate 250 g/ha)
6: Plant response rating, Wild oat (wild oat; POSTEMERGENCE, Rate 200 g/ha)
8: Plant response rating, Morningglory (morningglory; POSTEMERGENCE, Rate 50 g/ha)
45: Plant response rating (0 to 100), Rice Japonica (rice [2]; [4])
10: Plant response rating, Barnyardgrass (barnyardgrass; POSTEMERGENCE, Rate 200 g/ha) | Plant response rating, Cocklebur (cocklebur; POSTEMERGENCE, Rate 200 g/ha) | Plant response rating (0 to 10 scale), Cotton (cotton; POSTEMERGENCE, Rate 50 g/ha) | Plant response rating, Cotton (cotton; POSTEMERGENCE, Rate 200 g/ha) | Plant response rating, Morningglory (morningglory; POSTEMERGENCE, Rate 200 g/ha)
20: Plant response rating (0 to 100), Blackgrass (blackgrass; Rate 4 g/ha) | Plant response rating, Crabgrass (crabgrass; 62 g/ha) | Plant response rating Umbrella sedge (umbrella sedge; 62 g/ha)

COc1cc(-c2nn3c(c2Cl)CCCC3)c(F)cc1Cl [Compound 29]
100: Plant response rating, Rape (rape; 62 g/ha) | Plant response rating, Rape (rape; 250 g/ha) | Plant response rating (0 to 100), Rape (rape; Rate 16 g/ha)
5: Plant response rating, Morningglory (morningglory; Rate 200 g/ha, PREEMERGENCE) | Plant response rating, Sorghum (sorghum; POSTEMERGENCE, Rate 50 g/ha) | Plant response rating, Wild oat (wild oat; POSTEMERGENCE, Rate 50 g/ha)
20: Plant response rating (0 to 100), Blackgrass (blackgrass; Rate 4 g/ha) | Plant response rating, Crabgrass (crabgrass; 62 g/ha) | Plant response rating (0 to 100), Crabgrass (crabgrass; Rate 16 g/ha) | Plant response rating (0 to 100), Umbrella sedge (umbrella sedge; [3])
65: Plant response rating (0 to 100), Rice Japonica (rice [2]; [4])
0: Plant response rating, Rice (rice [1]; PREEMERGENCE, Rate 50 g/ha) | Plant response rating, Sorghum (sorghum; PREEMERGENCE, Rate 50 g/ha) | Plant response rating, Wheat (wheat; PREEMERGENCE, Rate 50 g/ha) | Plant response rating (0 to 100), Crabgrass (crabgrass; Rate 4 g/ha) | Plant response rating, S. Sandbur (sandbur; POSTEMERGENCE, Rate 125 g/ha) | Plant response rating, S. Sandbur (sandbur; POSTEMERGENCE, Rate 250 g/ha) | Plant response rating, S. Sandbur (sandbur; PREEMERGENCE, Rate 125 g/ha) | Plant response rating, S. Sandbur (sandbur; PREEMERGENCE, Rate 250 g/ha)
6: Plant response rating (0 to 10 scale), Cocklebur (cocklebur; POSTEMERGENCE, Rate 50 g/ha) | Plant response rating, Sorghum (sorghum; Rate 200 g/ha, POSTEMERGENCE) | Plant response rating, Wheat (wheat; Rate 200 g/ha, POSTEMERGENCE)
10: Plant response rating, Barnyardgrass (barnyardgrass; POSTEMERGENCE, Rate 200 g/ha) | Plant response rating, Cocklebur (cocklebur; POSTEMERGENCE, Rate 200 g/ha) | Plant response rating (0 to 10 scale), Cotton (cotton; POSTEMERGENCE, Rate 50 g/ha) | Plant response rating, Cotton (cotton; POSTEMERGENCE, Rate 200 g/ha) | Plant response rating, Morningglory (morningglory; Rate 200 g/ha, POSTEMERGENCE)
2: Plant response rating, Cocklebur (cocklebur; PREEMERGENCE, Rate 50 g/ha) | Plant response rating, Morningglory (morningglory; PREEMERGENCE, Rate 50 g/ha) | Plant response rating, Rice (rice [1]; Rate 200 g/ha, PREEMERGENCE)
30: Plant response rating (0 to 100), Blackgrass (blackgrass; Rate 16 g/ha) | Plant response rating (0 to 100), Rice Japonica (rice [2]; [3]) | Plant response rating (0 to 100), Umbrella sedge (umbrella sedge; [4])
95: Plant response rating Umbrella sedge (umbrella sedge; 250 g/ha)
90: Plant response rating, Blackgrass (blackgrass; 250 g/ha) | Plant response rating (0 to 100), Rape (rape; Rate 4 g/ha) | Plant response rating Rice Japonica (rice [2]; 250 g/ha) | Plant response rating Umbrella sedge (umbrella sedge; 62 g/ha)
70: Plant response rating Rice Japonica (rice [2]; 62 g/ha)
1: Plant response rating, Cotton (cotton; PREEMERGENCE, Rate 50 g/ha) | Plant response rating, Sorghum (sorghum; Rate 200 g/ha, PREEMERGENCE)
8: Plant response rating (0 to 10 scale), Barnyardgrass (barnyardgrass; POSTEMERGENCE, Rate 50 g/ha) | Plant response rating, Barnyardgrass (barnyardgrass; Rate 200 g/ha, PREEMERGENCE) | Plant response rating, Morningglory (morningglory; POSTEMERGENCE, Rate 50 g/ha)
50: Plant response rating, Blackgrass (blackgrass; 62 g/ha) | Plant response rating, Crabgrass (crabgrass; 250 g/ha)
4: Plant response rating, Barnyardgrass (barnyardgrass; PREEMERGENCE, Rate 50 g/ha) | Plant response rating, Cocklebur (cocklebur; Rate 200 g/ha, PREEMERGENCE) | Plant response rating, Rice (rice [1]; POSTEMERGENCE, Rate 50 g/ha) | Plant response rating, Wheat (wheat; POSTEMERGENCE, Rate 50 g/ha) | Plant response rating, Wheat (wheat; Rate 200 g/ha, PREEMERGENCE)
7: Plant response rating, Cotton (cotton; Rate 200 g/ha, PREEMERGENCE) | Plant response rating, Rice (rice [1]; Rate 200 g/ha, POSTEMERGENCE) | Plant response rating, Wild oat (wild oat; Rate 200 g/ha, POSTEMERGENCE)
